# Reference: patent publication US10927389B2, “Method of producing chemical substance by continuous fermentation” (Toray Industries, Inc., priority 2014, dated 2021)
# Assays:
# [1] = tested on: Saccharomyces cerevisiae NITE BP-1089 strain; experiment: Acetone resistance test; type: cell-based; conditions: strain BP-1089; 4% (v/v) acetone in YPAD medium, 30° C., 40 hours; absorbance at 600 nm with acetone ÷ without ×100
# Method: (§1) To 5 ml of YPAD medium, 200 μL of acetone was added so that the final concentration became 4% (v/v). […] Absorbance at 600 nm of YPAD medium (with acetone)÷absorbance at 600 nm of YPAD medium×100 (7)
# [2] = tested on: Saccharomyces cerevisiae NBRC 2260/ΔPDC1::LDH strain; experiment: Acetone resistance test; type: cell-based; conditions: strain NBRC 2260 ΔPDC1::LDH; 4% (v/v) acetone in YPAD medium, 30° C., 40 hours; absorbance at 600 nm with acetone ÷ without ×100
# Method: as §1
# [3] = tested on: Candida tropicalis NBRC 199 strain; experiment: Acetone resistance test; type: cell-based; conditions: strain NBRC 199; 4% (v/v) acetone in YPAD medium, 30° C., 40 hours; absorbance at 600 nm with acetone ÷ without ×100
# Method: as §1
# [4] = tested on: Candida pignaliae NBRC 10307 strain; experiment: Acetone resistance test; type: cell-based; conditions: strain NBRC 10307; 4% (v/v) acetone in YPAD medium, 30° C., 40 hours; absorbance at 600 nm with acetone ÷ without ×100
# Method: as §1
# [5] = tested on: Saccharomyces cerevisiae NITE BP-1087 strain; experiment: Acetone resistance test; type: cell-based; conditions: strain BP-1087; 4% (v/v) acetone in YPAD medium, 30° C., 40 hours; absorbance at 600 nm with acetone ÷ without ×100
# Method: as §1
# [6] = tested on: Kluyveromyces marxianus NBRC 272 strain; experiment: Acetone resistance test; type: cell-based; conditions: strain NBRC 272; 4% (v/v) acetone in YPAD medium, 30° C., 40 hours; absorbance at 600 nm with acetone ÷ without ×100
# Method: as §1
# [7] = tested on: Pichia stipitis BCRC 21777 strain; experiment: Acetone resistance test; type: cell-based; conditions: strain BCRC 21777; 4% (v/v) acetone in YPAD medium, 30° C., 40 hours; absorbance at 600 nm with acetone ÷ without ×100
# Method: as §1
# [8] = tested on: Saccharomyces cerevisiae NBRC 2260 strain; experiment: Acetone resistance test; type: cell-based; conditions: strain NBRC 2260; 4% (v/v) acetone in YPAD medium, 30° C., 40 hours; absorbance at 600 nm with acetone ÷ without ×100
# Method: as §1
# [9] = tested on: Lindnera fabianii NBRC 1253 strain; experiment: Acetone resistance test; type: cell-based; conditions: strain NBRC 1253; 4% (v/v) acetone in YPAD medium, 30° C., 40 hours; absorbance at 600 nm with acetone ÷ without ×100
# Method: as §1
# [10] = tested on: Candida boidinii BCRC 22528 strain; experiment: Acetone resistance test; type: cell-based; conditions: strain BCRC 22528; 4% (v/v) acetone in YPAD medium, 30° C., 40 hours; absorbance at 600 nm with acetone ÷ without ×100
# Method: as §1
# [11] = tested on: Candida methanosorbosa BCRC 21489 strain; experiment: Acetone resistance test; type: cell-based; conditions: strain BCRC 21489; 4% (v/v) acetone in YPAD medium, 30° C., 40 hours; absorbance at 600 nm with acetone ÷ without ×100
# Method: as §1
# [12] = tested on: Arxula adeninivorans NBRC 10858 strain; experiment: Acetone resistance test; type: cell-based; conditions: strain NBRC 10858; 4% (v/v) acetone in YPAD medium, 30° C., 40 hours; absorbance at 600 nm with acetone ÷ without ×100
# Method: as §1
# [13] = tested on: Saccharomyces cerevisiae NBRC 10505/ΔPDC1::LDH strain; experiment: Acetone resistance test; type: cell-based; conditions: strain NBRC 10505 ΔPDC1::LDH; 4% (v/v) acetone in YPAD medium, 30° C., 40 hours; absorbance at 600 nm with acetone ÷ without ×100
# Method: as §1
# [14] = tested on: Saccharomyces cerevisiae NITE BP-1088 strain; experiment: Acetone resistance test; type: cell-based; conditions: strain BP-1088; 4% (v/v) acetone in YPAD medium, 30° C., 40 hours; absorbance at 600 nm with acetone ÷ without ×100
# Method: as §1
# [15] = tested on: Saccharomyces cerevisiae NBRC 10505 strain; experiment: Acetone resistance test; type: cell-based; conditions: strain NBRC 10505; 4% (v/v) acetone in YPAD medium, 30° C., 40 hours; absorbance at 600 nm with acetone ÷ without ×100
# Method: as §1
# [16] = tested on: Pichia mexicana NBRC 10320 strain; experiment: Acetone resistance test; type: cell-based; conditions: strain NBRC 10320; 4% (v/v) acetone in YPAD medium, 30° C., 40 hours; absorbance at 600 nm with acetone ÷ without ×100
# Method: as §1
# As a result, the Pichia mexicana NBRC 10320 strain was found not to be a vanillin-resistant yeast, but found to be an acetone-resistant yeast.
# [17] = tested on: Saccharomyces cerevisiae NBRC 10505/ΔPDC1::LDH strain; conditions: strain NBRC 10505 ΔPDC1::LDH; vanillin 1 g/L in YPAD medium, 30° C., 40 hours; absorbance at 600 nm with vanillin ÷ without ×100
# Method: (§2) The Saccharomyces cerevisiae NBRC 10505 strain was inoculated using a platinum loop to 20-ml test tubes each containing 5 ml of YPAD medium, and then cultured with shaking at 30° C. overnight (preculture). The YPAD medium had the following composition: 1% (w/v) yeast extract, 2% (w/v) bactopeptone, 2% (w/v) glucose, and 0.04% (w/v) adenine. A vanillin concentrate (200 g/L in DMSO) was prepared, and 25 μL of the vanillin concentrate was added to 5 ml of YPAD medium so that the final concentration became 1 g/L. To provide vanillin-free YPAD medium, 25 μl of DMSO alone was added to YPAD medium. The preculture liquid was inoculated to the YPAD medium (with vanillin) and the vanillin-free YPAD medium such that OD became 0.2, and culture was performed at 30° C. for 40 hours. After the culture, OD 600 nm of the culture liquid of each strain was measured, and a value was calculated according to Equation (6). Absorbance at 600 nm of YPAD medium (with vanillin)÷absorbance at 600 nm of YPAD medium×100 (6).
# [18] = tested on: Saccharomyces cerevisiae NBRC 10505 strain; experiment: Vanillin resistance test; type: cell-based; conditions: strain NBRC 10505; vanillin 1 g/L in YPAD medium, 30° C., 40 hours; absorbance at 600 nm with vanillin ÷ without ×100
# Method: as §2
# [19] = tested on: Arxula adeninivorans NBRC 10858 strain; experiment: Vanillin resistance test; type: cell-based; conditions: strain NBRC 10858; vanillin 1 g/L in YPAD medium, 30° C., 40 hours; absorbance at 600 nm with vanillin ÷ without ×100
# Method: as §2
# The Arxula adeninivorans NBRC 10858 strain was tested by the same method as in Reference Example 5, and values were calculated according to Equation (6) and Equation (7) (Table 1).
# [20] = tested on: Candida methanosorbosa BCRC 21489 strain; experiment: Vanillin resistance test; type: cell-based; conditions: strain BCRC 21489; vanillin 1 g/L in YPAD medium, 30° C., 40 hours; absorbance at 600 nm with vanillin ÷ without ×100
# Method: The Candida methanosorbosa BCRC 21489 strain was tested by the same method as in Reference Example 5, and values were calculated according to Equation (6) and Equation (7) (Table 1).
# [21] = tested on: Pichia mexicana NBRC 10320 strain; experiment: Vanillin resistance test; type: cell-based; conditions: strain NBRC 10320; vanillin 1 g/L in YPAD medium, 30° C., 40 hours; absorbance at 600 nm with vanillin ÷ without ×100
# Method: The Pichia mexicana NBRC 10320 strain was tested by the same method as in Reference Example 5, and values were calculated according to Equation (6) and Equation (7) (Table 1).
# [22] = tested on: Saccharomyces cerevisiae NBRC 2260/ΔPDC1::LDH strain; conditions: strain NBRC 2260 ΔPDC1::LDH; vanillin 1 g/L in YPAD medium, 30° C., 40 hours; absorbance at 600 nm with vanillin ÷ without ×100
# Method: as §2
# [23] = tested on: Candida boidinii BCRC 22528 strain; experiment: Vanillin resistance test; type: cell-based; conditions: strain BCRC 22528; vanillin 1 g/L in YPAD medium, 30° C., 40 hours; absorbance at 600 nm with vanillin ÷ without ×100
# Method: The Candida boidinii BCRC 22528 strain was tested by the same method as in Reference Example 5, and values were calculated according to Equation (6) and Equation (7) (Table 1).
# [24] = tested on: Candida tropicalis NBRC 199 strain; experiment: Vanillin resistance test; type: cell-based; conditions: strain NBRC 199; vanillin 1 g/L in YPAD medium, 30° C., 40 hours; absorbance at 600 nm with vanillin ÷ without ×100
# [25] = tested on: Saccharomyces cerevisiae NBRC 2260 strain; experiment: Vanillin resistance test; type: cell-based; conditions: strain NBRC 2260; vanillin 1 g/L in YPAD medium, 30° C., 40 hours; absorbance at 600 nm with vanillin ÷ without ×100
# Method: as §2
# [26] = tested on: Pichia stipitis BCRC 21777 strain; experiment: Vanillin resistance test; type: cell-based; conditions: strain BCRC 21777; vanillin 1 g/L in YPAD medium, 30° C., 40 hours; absorbance at 600 nm with vanillin ÷ without ×100
# Method: (§3) The YPAD medium had the following composition: 1% (w/v) yeast extract, 2% (w/v) bactopeptone, 2% (w/v) glucose, and 0.04% (w/v) adenine. A vanillin concentrate (200 g/L in DMSO) was prepared, and 25 μL of the vanillin concentrate was added to 5 ml of YPAD medium so that the final concentration became 1 g/L. To provide vanillin-free YPAD medium, 25 μl of DMSO alone was added to YPAD medium. The preculture liquid was inoculated to the YPAD medium (with vanillin) and the vanillin-free YPAD medium such that OD became 0.2, and culture was performed at 30° C. for 40 hours. After the culture, OD 600 nm of the culture liquid of each strain was measured, and a value was calculated according to Equation (6). Absorbance at 600 nm of YPAD medium (with vanillin)÷absorbance at 600 nm of YPAD medium×100 (6).
# The Pichia stipitis BCRC 21777 strain was tested by the same method as in Reference Example 5, and values were calculated according to Equation (6) and Equation (7) (Table 1).
# [27] = tested on: Saccharomyces cerevisiae NITE BP-1089 strain; experiment: Vanillin resistance test; type: cell-based; conditions: strain BP-1089; vanillin 1 g/L in YPAD medium, 30° C., 40 hours; absorbance at 600 nm with vanillin ÷ without ×100
# Method: as §2
# [28] = tested on: Kluyveromyces marxianus NBRC 272 strain; experiment: Vanillin resistance test; type: cell-based; conditions: strain NBRC 272; vanillin 1 g/L in YPAD medium, 30° C., 40 hours; absorbance at 600 nm with vanillin ÷ without ×100
# Method: as §3
# The Kluyveromyces marxianus NBRC 272 strain was tested by the same method as in Reference Example 5, and values were calculated according to Equation (6) and Equation (7) (Table 1).
# [29] = tested on: Saccharomyces cerevisiae NITE BP-1087 strain; experiment: Vanillin resistance test; type: cell-based; conditions: strain BP-1087; vanillin 1 g/L in YPAD medium, 30° C., 40 hours; absorbance at 600 nm with vanillin ÷ without ×100
# Method: as §2
# [30] = tested on: Saccharomyces cerevisiae NITE BP-1088 strain; experiment: Vanillin resistance test; type: cell-based; conditions: strain BP-1088; vanillin 1 g/L in YPAD medium, 30° C., 40 hours; absorbance at 600 nm with vanillin ÷ without ×100
# Method: as §2
# [31] = tested on: Lindnera fabianii NBRC 1253 strain; experiment: Vanillin resistance test; type: cell-based; conditions: strain NBRC 1253; vanillin 1 g/L in YPAD medium, 30° C., 40 hours; absorbance at 600 nm with vanillin ÷ without ×100
# Method: The Lindnera fabianii NBRC 1253 strain was tested by the same method as in Reference Example 5, and a value was calculated according to Equation (6) and Equation (7) (Table 1).
# [32] = tested on: Candida pignaliae NBRC 10307 strain; experiment: Vanillin resistance test; type: cell-based; conditions: strain NBRC 10307; vanillin 1 g/L in YPAD medium, 30° C., 40 hours; absorbance at 600 nm with vanillin ÷ without ×100
# Method: as §3
smiles,measurement,setting,value
"CC(C)=O [Acetone, acetone]",Acetone resistance test result,[1],7.2
same,Acetone resistance test result,[2],84
same,Acetone resistance test result,[3],100
same,Acetone resistance test result,[4],1.3
same,Acetone resistance test result,[5],10
same,Acetone resistance test result,[6],87
same,Acetone resistance test result,[7],1.8
same,Acetone resistance test result,[8],86
same,Acetone resistance test result,[9],111
same,Acetone resistance test result,[10],49
same,Acetone resistance test result,[11],74
same,Acetone resistance test result,[12],22
same,Acetone resistance test result,[13],8
same,Acetone resistance test result,[14],7.5
same,Acetone resistance test result,[15],8.8
same,Acetone resistance test result,[16],100
"COc1cc(C=O)ccc1O [Vanillin, vanillin]",Vanillin resistance test result,[17],6.2
same,Vanillin resistance test result,[18],6.8
same,Vanillin resistance test result,[19],84
same,Vanillin resistance test result,[20],54
same,Vanillin resistance test result,[21],11
same,Vanillin resistance test result,[22],82
same,Vanillin resistance test result,[23],66
same,Vanillin resistance test result,[24],82
same,Vanillin resistance test result,[25],83
same,Vanillin resistance test result,[26],22
same,Vanillin resistance test result,[27],7.8
same,Vanillin resistance test result,[28],100
same,Vanillin resistance test result,[29],9.2
same,Vanillin resistance test result,[30],8.5
same,Vanillin resistance test result,[31],95
same,Vanillin resistance test result,[32],1.9
